Consider 33 molecules from patent publication US10118930B2, “Piperidinylpyrazolopyrimidinones and their use” (BAYER PHARMA AKTIENGESELLSCHAFT, priority 2015, dated 2018).

Structures can show the parent of a compound that is named as a salt.

The subject of this test is clot lysis (fibrinolysis) in diluted human citrated plasma, tPA-induced. The experiment in a line: Plasma-based clot lysis assay (5%). The test is classed as biochemical. To be noted: human citrated platelet-poor plasma 5%, fibrinogen 3 μM, CaCl2 10 mM, tPA 0.2 nM, 37° C., OD at 405 nm. In outline:
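Clot formation and breakdown triggered by CaCl2 (10 mM final) plus tPA (0.2 nM final) at 37° C, in 5% diluted human plasma supplemented with 3 μM fibrinogen (HEPES/NaCl/Brij buffer, pH 7). IC50 obtained from time courses relative to a blank control.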

As a reminder, the IC50 is the concentration that gives 50% inhibition. A high value points to lower potency. `COC(=O)c1cnn2c(C3CCNCC3)cc(=O)[nH]c12` [Example 357, Methyl 5-oxo-7-(piperidin-4-yl)-4,5-dihydropyrazolo[1,5-a]pyrimidine-3-carboxylate hydrochloride] returned a concentration for half-maximal inhibition (IC50) of 14 nM.
Molecule `O=C(c1cnn2c(C3CCNCC3)cc(=O)[nH]c12)N1CCC12CCOCC2` [Example 359, 3-(7-oxa-1-azaspiro[3.5]non-1-ylcarbonyl)-7-(piperidin-4-yl)pyrazolo[1,5-a]pyrimidin-5(4H)-one trifluoroacetate] gave an IC50 of 120 nM.
Molecule `C[C@@H](c1ccccc1)N(C)C(=O)c1cnn2c(C3CCNCC3)cc(=O)[nH]c12` [Example 360, N-methyl-5-oxo-N-[(1S)-1-phenylethyl]-7-(piperidin-4-yl)-4,5-dihydropyrazolo[1,5-a]pyrimidine-3-carboxamide hydrochloride] showed an IC50 of 52 nM.
In the case of `CN(Cc1ccccn1)C(=O)c1cnn2c(C3CCNCC3)cc(=O)[nH]c12` [Example 361, N-methyl-5-oxo-7-(piperidin-4-yl)-N-(pyridin-2-ylmethyl)-4,5-dihydropyrazolo[1,5-a]pyrimidine-3-carboxamide hydrochloride], the half-maximal inhibitory concentration (IC50) amounted to 32 nM.
The result for `CCCOC(=O)c1c(C)nn2c(C3CCNCC3)cc(=O)[nH]c12` [Example 365, Propyl 2-methyl-5-oxo-7-(piperidin-4-yl)-4,5-dihydropyrazolo[1,5-a]pyrimidine-3-carboxylate hydrochloride] reads 38 nM; that for `Cc1nn2c(C3CCNCC3)cc(=O)[nH]c2c1C(=O)OC(C)C` [Example 366, Propan-2-yl 2-methyl-5-oxo-7-(piperidin-4-yl)-4,5-dihydropyrazolo[1,5-a]pyrimidine-3-carboxylate hydrochloride], 27 nM; that for `Cc1nc(-c2ccc(C(F)(F)F)cc2)sc1-c1cnn2c(C3CCNCC3)cc(=O)[nH]c12` [Example 369, 3-{4-methyl-2-[4-(trifluoromethyl)phenyl]-1,3-thiazol-5-yl}-7-(piperidin-4-yl)pyrazolo[1,5-a]pyrimidin-5(4H)-one hydrochloride], 39 nM.
Under `CC(=O)c1cnn2c(C3CCNCC3)cc(=O)[nH]c12` [Example 370, 3-acetyl-7-(piperidin-4-yl)pyrazolo[1,5-a]pyrimidin-5(4H)-one hydrochloride] stands 36 nM; under `CCC(=O)c1cnn2c(C3CCNCC3)cc(=O)[nH]c12` [Example 371, 7-(piperidin-4-yl)-3-propanoylpyrazolo[1,5-a]pyrimidin-5(4H)-one hydrochloride], 30 nM; under `O=c1cc(C2CCNCC2)n2ncc(-c3coc(-c4ccccc4)n3)c2[nH]1` [Example 372, 3-(2-phenyl-1,3-oxazol-4-yl)-7-(piperidin-4-yl)pyrazolo[1,5-a]pyrimidin-5(4H)-one hydrochloride], 22 nM.
Under `N#Cc1c(Br)nn2c(C3CCNCC3)cc(=O)[nH]c12` [Example 374, 2-bromo-5-oxo-7-(piperidin-4-yl)-4,5-dihydropyrazolo[1,5-a]pyrimidine-3-carbonitrile hydrochloride] stands 34 nM; under `Cn1nccc1-c1cnn2c(C3CCNCC3)cc(=O)[nH]c12` [Example 375, 3-(1-methyl-1H-pyrazol-5-yl)-7-(piperidin-4-yl)pyrazolo[1,5-a]pyrimidin-5(4H)-one hydrochloride], 30 nM.
`CC(C)Cc1nc(-c2cnn3c(C4CCNCC4)cc(=O)[nH]c23)no1` [Example 378, 3-(5-Isobutyl-1,2,4-oxadiazol-3-yl)-7-(piperidin-4-yl)pyrazolo[1,5-a]pyrimidin-5(4H)-one hydrochloride] gave an IC50 of 32 nM.
The result for `CCCCCCc1nc(-c2cnn3c(C4CCNCC4)cc(=O)[nH]c23)no1` [Example 379, 3-(5-Hexyl-1,2,4-oxadiazol-3-yl)-7-(piperidin-4-yl)pyrazolo[1,5-a]pyrimidin-5(4H)-one hydrochloride] reads 22 nM; that for `CC(C)=Cc1nc(-c2cnn3c(C4CCNCC4)cc(=O)[nH]c23)no1` [Example 383, 3-[5-(2-Methylprop-1-en-1-yl)-1,2,4-oxadiazol-3-yl]-7-(piperidin-4-yl)pyrazolo[1,5-a]pyrimidin-5 (4H)-one hydrochloride], 15 nM.
Take `O=c1cc(C2CCNCC2)n2ncc(-c3noc(C=C4CCCC4)n3)c2[nH]1` [Example 384, 3-[5-(Cyclopentylidenemethyl)-1,2,4-oxadiazol-3-yl]-7-(piperidin-4-yl)pyrazolo[1,5-a]pyrimidin-5 (4H)-one hydrochloride]: 26 nM corresponded to half-maximal inhibition (IC50).
The result for `O=c1cc(C2CCNCC2)n2ncc(-c3noc(C4CCCC4)n3)c2[nH]1` [Example 385, 3-(5-Cyclopentyl-1,2,4-oxadiazol-3-yl)-7-(piperidin-4-yl)pyrazolo[1,5-a]pyrimidin-5(4H)-one hydrochloride] reads 14 nM; that for `O=c1cc(C2CCNCC2)n2ncc(-c3noc(CC(F)(F)F)n3)c2[nH]1` [Example 388, 7-(Piperidin-4-yl)-3-[5-(2,2,2-trifluoroethyl)-1,2,4-oxadiazol-3-yl]pyrazolo[1,5-a]pyrimidin-5(4H)-one hydrochloride], 30 nM.
The result for `O=c1cc(C2CCNCC2)n2ncc(-c3noc(C4CC(F)(F)C4)n3)c2[nH]1` [Example 392, 3-(5-(3,3-difluorocyclobutyl)-1,2,4-oxadiazol-3-yl)-7-(piperidin-4-yl)pyrazolo[1,5-a]pyrimidin-5(4H)-one hydrochloride] reads 27 nM.
The result for `O=c1cc(C2CCNCC2)n2ncc(-c3noc(C4CCC(F)(F)CC4)n3)c2[nH]1` [Example 393, 3-(5-(4,4-difluorocyclohexyl)-1,2,4-oxadiazol-3-yl)-7-(piperidin-4-yl)pyrazolo[1,5-a]pyrimidin-5(4H)-one hydrochloride] reads 30 nM; that for `COCc1nc(-c2cnn3c(C4CCNCC4)cc(=O)[nH]c23)no1` [Example 394, 3-(5-(methoxymethyl)-1,2,4-oxadiazol-3-yl)-7-(piperidin-4-yl)pyrazolo[1,5-a]pyrimidin-5(4H)-one hydrochloride], 29 nM.
The molecule `COCCCc1nc(-c2cnn3c(C4CCNCC4)cc(=O)[nH]c23)no1` [Example 395, 3-(5-(3-methoxypropyl)-1,2,4-oxadiazol-3-yl)-7-(piperidin-4-yl)pyrazolo[1,5-a]pyrimidin-5(4H)-one hydrochloride] registered a 50% inhibitory concentration (IC50) of 27 nM.
Regarding `Cc1nn2c(C3CCNCC3)cc(=O)[nH]c2c1C(=O)N1CCSCC1` [Example 397, 2-methyl-7-(piperidin-4-yl)-3-(thiomorpholin-4-ylcarbonyl)pyrazolo [1,5-a]pyrimidin-5(4H)-one hydrochloride], half-maximal inhibition (IC50) was put at 36 nM. This IC50 and that of the molecule before are within 1.5-fold of each other.
Consider `COC[C@@H]1CCCN1C(=O)c1c(C)nn2c(C3CCNCC3)cc(=O)[nH]c12` [Example 398, 3-{[(2S)-2-(methoxymethyl)pyrrolidin-1-yl]carbonyl}-2-methyl-7-(piperidin-4-yl) pyrazolo[1,5-a] pyrimidin-5(4H)-one hydrochloride], for which the IC50 came to 34 nM. This IC50 and that of the molecule before are within 1.5-fold of each other.
The result for `Cc1nn2c(C3CCNCC3)cc(=O)[nH]c2c1C(=O)N1CCCCC1` [Example 399, 2-methyl-7-(piperidin-4-yl)-3-(piperidin-1-ylcarbonyl) pyrazolo[1,5-a] pyrimidin-5(4H)-one hydrochloride] reads 42 nM; that for `CCN(C(=O)c1c(C)nn2c(C3CCNCC3)cc(=O)[nH]c12)C1CC1` [Example 400, N-cyclopropyl-N-ethyl-2-methyl-5-oxo-7-(piperidin-4-yl)-4,5-dihydro-pyrazolo[1,5-a] pyrimidine-3-carboxamide hydrochloride], 32 nM.
Turning to `Cc1nn2c(C3CCNCC3)cc(=O)[nH]c2c1C(=O)N(C)C1CCC1` [Example 401, N-cyclobutyl-N,2-dimethyl-5-oxo-7-(piperidin-4-yl)-4,5-dihydro-pyrazolo[1,5-a] pyrimidine-3-carboxamide hydrochloride], the IC50 is 34 nM.
Under `COCC1CCCN(C(=O)c2c(C)nn3c(C4CCNCC4)cc(=O)[nH]c23)C1` (stereo not drawn) [Example 402, 3-{[3-(methoxymethyl)piperidin-1-yl]carbonyl}-2-methyl-7-(piperidin-4-yl) pyrazolo[1,5-a] pyrimidin-5(4H)-one hydrochloride] stands 40 nM; under `Cc1nn2c(C3CCNCC3)cc(=O)[nH]c2c1C(=O)N1CCC2CCCCC2C1` (stereo not drawn) [Example 405, 2-methyl-3-(octahydro-isoquinolin-2(1H)-ylcarbonyl)-7-(piperidin-4-yl) pyrazolo[1,5-a] pyrimidin-5(4H)-one hydrochloride], 37 nM.
The result for `CCCN(CC1CC1)C(=O)c1c(C)nn2c(C3CCNCC3)cc(=O)[nH]c12` [Example 406, N-(cyclopropyl-methyl)-2-methyl-5-oxo-7-(piperidin-4-yl)-N-propyl-4,5-dihydropyrazolo [1,5-a]pyrimidine-3-carboxamide hydrochloride] reads 37 nM; that for `Cc1nn2c(C3CCNCC3)cc(=O)[nH]c2c1C(=O)N1CCCC(C(C)C)C1` (stereo not drawn) [Example 408, 3-[(3-isopropyl-piperidin-1-yl)carbonyl]-2-methyl-7-(piperidin-4-yl) pyrazolo[1,5-a] pyrimidin-5(4H)-one hydrochloride], 34 nM; that for `Cc1nn2c(C3CCNCC3)cc(=O)[nH]c2c1C(=O)N1Cc2ccccc2C1` [Example 410, 3-(1,3-dihydro-2H-isoindol-2-ylcarbonyl)-2-methyl-7-(piperidin-4-yl) pyrazolo[1,5-a] pyrimidin-5(4H)-one hydrochloride], 45 nM.
For the molecule `Cc1nn2c(C3CCNCC3)cc(=O)[nH]c2c1C(=O)N1CCN2CCCC2C1` (stereo not drawn) [Example 411, 3-(hexahydro-pyrrolo[1,2-a]pyrazin-2(1H)-ylcarbonyl)-2-methyl-7-(piperidin-4-yl) pyrazolo[1,5-a] pyrimidin-5(4H)-one hydrochloride], half-maximal inhibition (IC50) required 540 nM.
